# Assay results: patent publication US9566351B2, “Molecular containers and methods of making and using same” (University of Maryland, College Park, priority 2010, dated 2017)
# Values joined by “and” are separate entries in the source; they are usually repeats but may differ in a detail not shown here. Equal values may be shown once. Read-outs that look alike come from different tables or passages of the source.
# Experiments:
# TA100 [1] = conditions: Salmonella typhimurium, 10 μg/plate
# [2] = tested on: S. typhimurium strain TA1535; conditions: Salmonella typhimurium, 10 μg/plate
# TA98 strain = conditions: Salmonella typhimurium
# TA1537 strain = assay: Ames test, strain TA1537
# [3] = mouse, in vivo, iv, 3.2 mg/kg
# [4] = mouse, in vivo
# [5] = Pharmacokinetic study of Motor1.ABZ, IP route (plasma, HPLC); conditions: for plasma concentration: IP
# [6] = Pharmacokinetic study of Motor1.ABZ, IV route (plasma, HPLC); conditions: for plasma concentration: IV
# [7] = aqueous solution; cited from earlier work
# [8] = drug with Motor1; 20 mM sodium phosphate buffer (pH=7.4); phase diagram
# [9] = guest with Motor1; 20 mM sodium phosphate, pH = 7.4; direct UV/Vis titration (dyes) or indicator displacement
# HepG2 [10] = conditions: human, 48 h, 1 mM
# HEK293 [11] = conditions: human, 48 h, 1 mM
# HEK293 [12] = conditions: human, 48 h, 1 mM; remark: listed apart in the source
# [13] = Phase-solubility of pharmaceutical agents with Motor2 (1H NMR); conditions: drug solubilized with Motor2; 20 mM sodium phosphate buffer (pH=7.4); phase diagram
# MCF-7 = assay: In vitro bioactivity of Paclitaxel complexed with Motor1, MCF-7; assay type: cell-based; conditions: Paclitaxel 0.6 mM complexed, Paclitaxel 0.002 mM alone, Motor1 5 mM alone
# [14] = Motor1 toward drug; 1:1 inclusion complex; Ka=Slope/[S0(1−Slope)]
# Hela = assay: In vitro bioactivity of Paclitaxel complexed with Motor1, Hela; assay type: cell-based; conditions: Paclitaxel 0.6 mM complexed, Paclitaxel 0.002 mM alone, Motor1 5 mM alone
# [15] = Motor2 toward drug; 1:1 inclusion complex; Ka=Slope/[S0(1−Slope)]
# HepG2 [16] = assay: AK (adenylate kinase) release cytotoxicity assay, HepG2; assay type: cell-based, human; conditions: 1 mM, untreated population 60%
# [17] = tested on: S. typhimurium strain TA1535; assay: Ames test, strain TA1535; conditions: −S9
# TA100 [18] = assay: Ames test, strain TA100; conditions: −S9
# [19] = clinical evaluation; cited from earlier work
# hERG = target: T1, hERG (Homo sapiens, UniProt Q12809); conditions: transfected HEK-293 cells; HP-β-CD up to 4.2 mg/mL; cited from earlier work
# T1 construct: host or cells: transfected HEK-293 cells
# [20] = IV Route, Motor1.ABZ (681 and 3.2 mg/kg)
# T1 sequence (Q12809 whole entry): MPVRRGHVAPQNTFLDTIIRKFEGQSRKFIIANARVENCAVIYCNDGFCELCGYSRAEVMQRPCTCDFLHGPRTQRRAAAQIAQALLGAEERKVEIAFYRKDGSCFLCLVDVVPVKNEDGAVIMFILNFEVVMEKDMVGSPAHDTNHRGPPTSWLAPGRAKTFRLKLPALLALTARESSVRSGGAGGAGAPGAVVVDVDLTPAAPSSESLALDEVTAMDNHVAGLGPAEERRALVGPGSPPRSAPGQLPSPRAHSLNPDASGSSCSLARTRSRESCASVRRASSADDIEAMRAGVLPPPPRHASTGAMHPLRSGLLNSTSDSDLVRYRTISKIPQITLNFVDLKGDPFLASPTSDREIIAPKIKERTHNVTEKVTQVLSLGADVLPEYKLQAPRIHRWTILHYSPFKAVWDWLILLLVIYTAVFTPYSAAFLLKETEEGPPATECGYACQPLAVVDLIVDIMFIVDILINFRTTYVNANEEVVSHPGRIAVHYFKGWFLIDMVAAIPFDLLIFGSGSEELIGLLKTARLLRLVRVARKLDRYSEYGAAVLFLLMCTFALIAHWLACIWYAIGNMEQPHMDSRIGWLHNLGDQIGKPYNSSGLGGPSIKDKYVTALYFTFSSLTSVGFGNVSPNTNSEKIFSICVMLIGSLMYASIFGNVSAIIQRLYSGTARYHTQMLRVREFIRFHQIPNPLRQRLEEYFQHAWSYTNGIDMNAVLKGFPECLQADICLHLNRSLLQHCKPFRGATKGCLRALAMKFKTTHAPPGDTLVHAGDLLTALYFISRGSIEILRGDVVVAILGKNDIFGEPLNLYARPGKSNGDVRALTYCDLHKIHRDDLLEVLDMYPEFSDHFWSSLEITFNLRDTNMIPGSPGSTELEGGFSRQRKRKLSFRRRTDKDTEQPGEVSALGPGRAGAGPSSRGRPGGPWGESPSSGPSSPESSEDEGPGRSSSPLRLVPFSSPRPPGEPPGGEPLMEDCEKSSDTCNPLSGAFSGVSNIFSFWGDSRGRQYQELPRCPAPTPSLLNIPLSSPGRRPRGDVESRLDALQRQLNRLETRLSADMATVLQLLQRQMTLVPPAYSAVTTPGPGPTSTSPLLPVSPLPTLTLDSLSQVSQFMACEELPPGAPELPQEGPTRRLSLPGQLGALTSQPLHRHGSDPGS
compound,measurement,setting,value
Nc1ccc2cc3ccccc3cc2c1 [2-aminoanthracene],"revertant colonies, positive control",TA100 [1],1345 colonies
same,"revertant colonies, positive control",[2],27 colonies
same,"revertant colonies, positive control",TA98 strain; 10 μg/plate,1084 colonies
same,"revertant colonies, positive control",TA1537 strain; +S9,122 colonies
"CCCS(=O)(=O)c1ccc2nc(NC(=O)OC)[nH]c2c1 [ABZSO2, albendazole sulfone]",tmax,[3],2 h
same,Absolute Bioavailability (%),[4],81%
same,tmax,"[4]; ip, 3.2 mg/kg",2 h
"CCC[S+]([O-])c1ccc2[nH]c(NC(=O)OC)nc2c1 (stereo not drawn) [ABZSO, albendazole sulfoxide]",Absolute Bioavailability (%),[5]; IP Route relative to IV,43%
same,AUC,"[5]; IP Route, Motor1.ABZ (681 and 3.2 mg/kg)",6150 ng·h/mL
same,Cmax,"[5]; IP Route, one injection of Motor1.ABZ (681 and 3.2 mg/kg), plasma",2620 ng/mL
same,tmax,"[5]; IP administration, Motor1.ABZ (681 and 3.2 mg/kg)",0.25 h
same,plasma concentration,"[5]; t = 5, individual mice",298 ng/mL and 400 ng/mL and 817 ng/mL and 816 ng/mL and 600 ng/mL
same,plasma concentration,"[5]; t = 15 min, individual mice",2460 ng/mL and 2160 ng/mL and 2910 ng/mL and 2934 ng/mL
same,plasma concentration,"[5]; t = 30 min, individual mice",2350 ng/mL and 2650 ng/mL and 2320 ng/mL and 2480 ng/mL
same,plasma concentration,"[5]; t = 2 h, individual mice",1060 ng/mL and 564 ng/mL and 463 ng/mL and 764 ng/mL and 888 ng/mL
same,plasma concentration,"[5]; t = 4 h, individual mice",417 ng/mL and 361 ng/mL and 431 ng/mL and 91 ng/mL
same,plasma concentration,"[5]; t = 8 h, individual mice",158 ng/mL and 131 ng/mL
same,concentration at 15 min,"[5]; Swiss Webster, mouse, in vivo, ip, plasma concentration, t = 15 min, individual mice",2820 ng/mL
same,concentration at 30 min,"[5]; Swiss Webster, mouse, in vivo, ip, plasma concentration, t = 30 min, individual mice",3050 ng/mL
same,concentration at 8 h,"[5]; Swiss Webster, mouse, in vivo, ip, plasma concentration, t = 8 h, individual mice",183 ng/mL
same,concentration at 16 h,"[5]; Swiss Webster, mouse, in vivo, ip, plasma concentration, t = 16 h, individual mice",44 ng/mL
same,AUC,[6]; [20],14300 ng·h/mL
same,tmax,[6]; [20],0.5 h
same,Cmax,"[6]; IV Route, one injection of Motor1.ABZ (681 and 3.2 mg/kg), plasma",4340 ng/mL
same,plasma concentration,"[6]; t = 5 min, individual mice (duplicates a, b)",2310 ng/mL and 2970 ng/mL and 1930 ng/mL and 1840 ng/mL and 2740 ng/mL and 2630 ng/mL and 2030 ng/mL and 2070 ng/mL and 2330 ng/mL
same,plasma concentration,"[6]; t = 15 min, individual mice",3360 ng/mL and 3370 ng/mL and 3100 ng/mL and 2900 ng/mL and 3880 ng/mL and 3580 ng/mL
same,plasma concentration,"[6]; t = 30 min, individual mice",4800 ng/mL and 4210 ng/mL and 4100 ng/mL and 3740 ng/mL and 4240 ng/mL
same,plasma concentration,"[6]; t = 2 h, individual mice",2110 ng/mL and 1590 ng/mL and 2100 ng/mL and 2490 ng/mL and 2810 ng/mL and 2400 ng/mL
same,plasma concentration,"[6]; t = 4 h, individual mice",923 ng/mL and 821 ng/mL and 777 ng/mL and 650 ng/mL
same,plasma concentration,"[6]; t = 8 h, individual mice",404 ng/mL and 433 ng/mL and 510 ng/mL and 475 ng/mL
same,plasma concentration,"[6]; t = 16 h, individual mice",30 ng/mL and 47 ng/mL and 52 ng/mL and 72 ng/mL and 42 ng/mL
same,concentration at 5 min,"[6]; Swiss Webster, mouse, in vivo, iv, plasma concentration, t = 5 min, individual mice (duplicates a, b)",2880 ng/mL
same,concentration at 15 min,"[6]; Swiss Webster, mouse, in vivo, iv, plasma concentration, t = 15 min, individual mice",3490 ng/mL
same,concentration at 30 min,"[6]; Swiss Webster, mouse, in vivo, iv, plasma concentration, t = 30 min, individual mice",3960 ng/mL
same,concentration at 2 h,"[6]; Swiss Webster, mouse, in vivo, iv, plasma concentration, t = 2 h, individual mice",1590 ng/mL
same,concentration at 4 h,"[6]; Swiss Webster, mouse, in vivo, iv, plasma concentration, t = 4 h, individual mice",614 ng/mL
same,concentration at 8 h,"[6]; Swiss Webster, mouse, in vivo, iv, plasma concentration, t = 8 h, individual mice",330 ng/mL
O=C1N2CN3C(=O)N4CN5C(=O)N6CN7C(=O)N8CN9C(=O)N%10CN%11C(=O)N%12CN%13C(=O)N%14CN1C1C2N2CN%15C(=O)N(CN%16C(=O)N(CN%17C(=O)N(CN%18C(=O)N(CN%19C(=O)N(CN%20C(=O)N(CN1C2=O)C%14C%13%20)C%12C%11%19)C%10C9%18)C8C7%17)C6C5%16)C4C3%15 (stereo not drawn) [CB[7]],Solubility,[7],≈ 20 mM
C(=C\c1ccccc1)/CN1CCN(C(c2ccccc2)c2ccccc2)CC1 [Cinnarizine],Solubility enhancement,[8],354 fold
COC(=O)[C@H](c1ccccc1Cl)N1CCc2sccc2C1 [Clopidogrel],Solubility enhancement,[8],1220 fold
"CN(C)c1ccc(C(=C2C=CC(=[N+](C)C)C=C2)c2ccc(N(C)C)cc2)cc1 [Crystal Violet Dye, Crystal Violet]",Ka,[9],5.2 ± 0.8 × 10^6
COc1cccc2c1C(=O)c1c(O)c3c(c(O)c1C2=O)C[C@@](O)(C(C)=O)C[C@@H]3O[C@H]1C[C@H](N)[C@H](O)[C@H](C)O1 [Daunomycin],"revertant colonies, positive control",TA98 strain; 6 μg/plate,361 colonies
CC[C@H]1OC(=O)[C@H](C)[C@@H](O[C@H]2C[C@@](C)(OC)[C@@H](O)[C@H](C)O2)[C@H](C)[C@@H](O[C@@H]2O[C@H](C)C[C@H](N(C)C)[C@H]2O)[C@](C)(O)C[C@@H](C)C(=O)[C@H](C)[C@@H](O)[C@]1(C)O [Erythromycin],cell viability (MTS),HepG2 [10],36%
same,cell viability (MTS),HEK293 [11],47%
same,cell death (AK),HEK293 [12],25%
COc1ccc2nc3cc(Cl)ccc3c(NCCCNCCCl)c2c1 [ICR 191 Acridine],"revertant colonies, positive control",TA1537 strain; −S9,91 colonies
N[C@@H](Cc1ccc(N(CCCl)CCCl)cc1)C(=O)O [Melphalan],Solubility enhancement,[8],655 fold
CC[C@@]1(O)C(=O)OCc2c1cc1n(c2=O)Cc2cc3ccccc3nc2-1 [S-camptothecin],Solubility enhancement,[13],580 fold
CC(=O)O[C@H]1C(=O)[C@@]2(C)[C@H]([C@H](OC(=O)c3ccccc3)[C@]3(O)C[C@H](OC(=O)[C@H](O)[C@@H](NC(=O)c4ccccc4)c4ccccc4)C(C)=C1C3(C)C)[C@]1(OC(C)=O)CO[C@@H]1C[C@@H]2O [Taxol],Solubility enhancement,[8],2750 fold
same,DNA fragmentation and cell death in comparison to untreated,MCF-7,little to no cell death
same,Ka,[14],19000 M⁻¹
same,DNA fragmentation and cell death in comparison to untreated,Hela,little to no cell death
same,Ka,[15],31000 M⁻¹
"Nc1ccc(N)cc1 [benzene-1,4-diamine]",Ka,[9],3.5 ± 0.2 × 10^5
"NCCCCN [butane-1,4-diamine]",Ka,[9],1.2 ± 0.1 × 10^5
CCC(=O)O[C@H]1[C@H](O[C@@H]2[C@@H](C)[C@H](O[C@H]3C[C@@](C)(OC)[C@@H](O)[C@H](C)O3)[C@@H](C)C(=O)O[C@H](CC)[C@@](C)(O)[C@H](O)[C@@H](C)C(=O)[C@H](C)C[C@@]2(C)O)O[C@H](C)C[C@@H]1N(C)C [erythromycin estolate],cell viability (MTS),HepG2 [10],10%
same,cell viability (MTS),HEK293 [11],11%
same,cell death (AK),HepG2 [16],100%
same,cell death (AK),HEK293 [12],49%
COc1ccc2c(c1)c(CC(=O)O)c(C)n2C(=O)c1ccc(Cl)cc1 [indomethacin],Solubility enhancement,[13],56 fold
[N-]=[N+]=[N-] [sodium azide],"revertant colonies, positive control",[17],232 colonies
same,"revertant colonies, positive control",TA100 [18],167 colonies
C[N+](C)(C)CCOC(=O)CCC(=O)OCC[N+](C)(C)C [succinyl choline],Ka,[9],1.9 ± 0.1 × 10^5
O=C(O)CCSC[C@H]1O[C@@H]2O[C@H]3[C@H](O)[C@@H](O)[C@@H](O[C@H]4[C@H](O)[C@@H](O)[C@@H](O[C@H]5[C@H](O)[C@@H](O)[C@@H](O[C@H]6[C@H](O)[C@@H](O)[C@@H](O[C@H]7[C@H](O)[C@@H](O)[C@@H](O[C@H]8[C@H](O)[C@@H](O)[C@@H](O[C@H]9[C@H](O)[C@@H](O)[C@@H](O[C@H]1[C@H](O)[C@H]2O)O[C@@H]9CSCCC(=O)O)O[C@@H]8CSCCC(=O)O)O[C@@H]7CSCCC(=O)O)O[C@@H]6CSCCC(=O)O)O[C@@H]5CSCCC(=O)O)O[C@@H]4CSCCC(=O)O)O[C@@H]3CSCCC(=O)O [sugammadex],effects on QT interval,[19],no relevant effects
Cc1c(Cl)cccc1Nc1ccccc1C(=O)O [tolfenamic acid],Solubility enhancement,[13],37 fold
hydroxypropyl-β-CD [HP-β-CD],interference with the hERG,hERG,"significant, non-dose dependent interference"
